Measured values as given in patent US20070082905A1, “PHARMACEUTICAL COMPOSITIONS COMPRISING N-TRIAZOLYMETHYL-PIPERAZINE COMPOUNDS AND METHODS OF USING SAME” (priority 2005, published 2007).
Counter-ions that a name gives are not always drawn.

Tests used:
[1] = Pharmacokinetics after a single oral dose in healthy male volunteers (plasma, HPLC-MS/MS); format: in vivo, human
Experimental: (§1) The pharmacokinetics after a single oral dose of the dihydrochloride salt of Compound D ((2R)-1-[3,5-bis(trifluoromethyl)benzoyl]-2-(1H-indol-3-ylmethyl)-4-{[5-(morpholinomethyl)-2H-1,2,3-triazol-4-yl]methyl}piperazine-dihydrochloride) were assessed in healthy male volunteers. Pharmacodynamic effects were also evaluated by measuring the antagonism of Substance P-induced venodialation using the hand vein compliance technique.
Nineteen healthy male non-smokers participated in a randomized, double-blind, placebo-controlled, cross-over study after each gave written informed consent. Only healthy volunteers without concurrent drug use were included in the study. […] Further exclusion criteria were: a history of allergies, known conditions causing endothelial dysfunction as diabetes, hyperlipidemia, arterial hypertension, hyperhomocysteinemia, and smoking, regular medication or treatment with drugs within the last 2 weeks, acute or chronic illness, and drug or alcohol abuse.
Next, Compound D as described herein (250 mg and 25 mg quinine sulphate) or placebo (25 mg quinine sulphate), both dissolved in water for injection and mint syrup, were administered as an oral solution. Quinine was added for blinding to mimic the bitter taste of Compound D and mint syrup to disguise the slightly yellowish colour as well as bitter taste. The infusion of Substance P (same dose as before study drug administration) was repeated at the following time points: 0.5 h, 1.25 h, 2 h, 2.75 h, 3.5 h, and 4.25 h after dosing. Each peptide application was separated by a wash-out phase of 45 min to avoid the occurrence of tolerance.
Venous blood samples for Compound D were taken 0.25 h before as well as 0.25 h, 0.5 h, 0.75 h, 1 h, 1.25 h, 2.0 h, 2.75 h, 3.5 h, 4.25 h, 6 h, 8 h, 12 h, and 24 h after administration. Blood was drawn into vials containing dry heparin, immediately stored on ice (+4° C.) and plasma was separated within 30 min at 3500 rpm for 10 min. The samples were stored at −20° C. until analysis. When time points of pharmacodynamic (hand vein compliance method) and pharmacokinetic measurements coincided the pharmacodynamic measurements were first finished before blood samples were taken, accepting a delay for pharmacokinetic sampling of about 5 min.
The plasma samples were then analyzed by extracting Compound D and its internal standard from plasma with diethylether, concentration and injection into an HPLC system with MS/MS detection. Accuracy and precision were within specifications; bias was <12%; the inter-day coefficient of variation was <14%. The lower limit of quantification was set at 0.2 ng/ml.
(§2) Source verification of all data documented in case report forms was performed by an independent clinical monitor. Nineteen individuals were randomized and thus included in the safety analysis. Only the randomized participants who completed both dosing sessions according to protocol were included in the pharmacodynamic analysis (n=17). Two participants had to be withdrawn due to methodological problems during hand vein measurements. One of these two was exposed to Compound D and complete pharmacokinetic data were obtained leading to data sets of 18 participants for pharmacokinetic analysis.
The area under the effect-time curve (AUCe) was calculated according to the trapezoidal rule. Statistical analysis of AUCe was performed using a mixed model analysis of variance (ANOVA) including the factors subject, sequence, period, and treatment. Pharmacokinetic calculations were performed using WinNonlin Professional 4.0.1 for Windows (Pharsight Corporation, Mountain View, Calif. 94040, USA). Differences in vital signs and dose-rates were assessed with Wilcoxon signed rank test, unless stated otherwise. Data are expressed as mean±SEM. A p-value of less than 0.05 was considered significant.

NK-1 receptor = target: T1, NK-1 receptor (Homo sapiens, UniProt P25103); assay: Antagonism of Substance P-induced venodilation, dorsal hand vein compliance technique; format: in vivo
T1 construct: measuring the antagonism of Substance P-induced venodialation using the hand vein compliance technique; from tissue; host or cells: dorsal hand vein of healthy male volunteers, in vivo
Experimental: as §1
The participants abstained from alcohol for at least 24 hours and from methylxanthine-containing beverages for at least 12 hours before the measurements of hand vein compliance were made. […] Venodilator responses were investigated in a quiet room maintained at a constant temperature between 23 and 25° C. using the dorsal hand vein compliance technique according to Aellig (See W. H. Aellig, A new technique for recording compliance of human hand veins. 1981. Br J Clin Pharmacol 2004; 58:S768-74) with modifications as described previously (Fricker R, et al., Endothelial venodilator response in carriers of genetic polymorphisms involved in NO synthesis and degradation. Br J Clin Pharmacol 2004; 58:169-77).
Hand vein compliance measurements started in the morning and the participants were asked to remain in a supine position throughout the study. The hand under investigation was placed on a vacuum pillow sloping upwards at an angle of 30° from horizontal. All vasoactive compounds were administered through a butterfly needle at a constant flow rate (0.25 ml·min^−1) into the vein under investigation. In each participant, the same hand vein was used for both study phases. Changes of the diameter of the vein were recorded using a linear variable differential transformer (Schaevitz®, Type 100 MHR, Pennsauken, N.J., USA) with a freely movable core (weight 0.5 g) resting over the centre of the vein under investigation. Transformer signals were amplified by a Schaevitz® CAS series signal conditioner and the output was recorded on a strip-chart recorder (LKB 2210 recorder, LKB Produkter AB®, Bromma, Sweden) at a paper speed of 0.5 cm·min^−1. The difference between the position of the core before and during inflation of a sphygmomanometer cuff on the same upper arm to 40 mmHg gave a measure of the diameter changes under a given congestion pressure. Peak heights on the strip-chart recorder were linearly proportional to the movement of the core and were measured manually in units according to standard operating procedures.
After having installed the tripod for hand vein compliance technique and having established a stable initial baseline with […] defined as 100% relaxation, increasing dose-rates of the selective α1-adrenoceptor agonist phenylephrine (Neo-Synephrine®, Abbott Laboratories, North Chicago, USA; dosages: 1.25−≦8000 ng·min^−1) were locally infused to constrict the vein by about 80%. This preconstriction baseline was defined as 0%, and the effect of subsequently administered vasodilators was expressed in percentage changes from the difference between the initial baseline diameter during normal saline and the diameter during stable preconstriction.
Once preconstriction was stable, Substance P (Calbiochem/Novabiochem AG, Läufelfingen, Switzerland) was co-administered until the maximal venodilation was reached (approximately 7-10 minutes). To prevent the peptide from sticking to tubing and syringes, substance P was dissolved in a 4% gelatine solution. Based on the experience of previous experiments in this setting, a Substance P dose rate of (1.5 pmol/min) was selected. If a participant reacted with less than 50% venodilation to the dose of 1.5 pmol/min, the dose was doubled to 3 pmol/min.
Next, Compound D as described herein (250 mg and 25 mg quinine sulphate) or placebo (25 mg quinine sulphate), both dissolved in water for injection and mint syrup, were administered as an oral solution. […]

[2] = Safety assessment (ECG, pulse rate, blood pressure, laboratory, adverse events) in healthy male volunteers; format: in vivo, human
Experimental: Dose-rates administered locally into the hand vein were intended not to result in any systemic effects which were monitored by repeated measurements of heart rate and blood pressure. Blood pressure was taken before and after every infusion of drugs or solvents (sodium chloride, phenylephrine, Substance P); a 12-lead ECG was monitored continuously up to the end of the hand vein compliance measurements.
Safety was assessed by measuring ECG, pulse rate, blood pressure, haematology, blood chemistry, urinalysis, and by occurrence of adverse events.
as §2

[3] = 250 mg oral, among participants

T1 sequence (P25103 whole entry): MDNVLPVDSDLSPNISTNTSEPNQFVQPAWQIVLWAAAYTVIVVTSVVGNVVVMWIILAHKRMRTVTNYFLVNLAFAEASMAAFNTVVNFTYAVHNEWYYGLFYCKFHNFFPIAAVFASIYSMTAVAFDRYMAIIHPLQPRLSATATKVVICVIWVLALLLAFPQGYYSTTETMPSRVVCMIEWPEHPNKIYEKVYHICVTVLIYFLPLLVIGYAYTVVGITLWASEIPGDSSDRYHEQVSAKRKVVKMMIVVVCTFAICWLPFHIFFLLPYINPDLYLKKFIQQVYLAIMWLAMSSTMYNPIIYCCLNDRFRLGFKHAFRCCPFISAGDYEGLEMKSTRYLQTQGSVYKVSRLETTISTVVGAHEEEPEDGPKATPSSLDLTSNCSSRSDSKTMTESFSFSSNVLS

In the case of O=C(c1cc(C(F)(F)F)cc(C(F)(F)F)c1)N1CCN(Cc2n[nH]nc2CN2CCOCC2)C[C@H]1Cc1c[nH]c2ccccc12 [Compound D, (2R)-1-[3,5-bis(trifluoromethyl)benzoyl]-2-(1H-indol-3-ylmethyl)-4-{[5-(morpholinomethyl)-2H-1,2,3-triazol-4-yl]methyl}piperazine-dihydrochloride], the “time to peak plasma concentration” value ([1]; 250 mg oral solution, single dose, 18 healthy participants, mean±SEM) is reported as at most 47 ± 3 min, the “plasma detectability 24 h after dosing (terminal phase)” value ([1]; 250 mg oral, 24 h after dosing, lower limit of quantification 0.2 ng/ml) is reported as “still detectable in low concentrations in all participants” and the “ratio between maximal and minimal value for AUC (inter-individual variability)” value [1, 3] is reported as 6.3. For the same compound, the “ratio between maximal and minimal value for Cmax (inter-individual variability)” value [1, 3] was 6.5, the half-life ([1]; male, human, plasma, 250 mg oral solution, single dose, 18 healthy participants, mean±SEM) was 9.9 ± 1.6 h and the AUC(0-inf) ([1]; male, human, plasma, 250 mg oral solution, single dose, 18 healthy participants, mean±SEM, read-out: mean AUC0-∞) was 183 ± 22 ng·h/mL. For the same compound, the Cmax ([1]; male, human, plasma, 250 mg oral solution, single dose, 18 healthy participants, mean±SEM, read-out: peak plasma concentration (Cmax)) was 77 ± 9 ng/mL, the “response to SNP (sodium nitroprusside) at the end of the experiment” value (NK-1 receptor; 2 μg/min SNP into hand vein after last Substance P infusion, not different from placebo (p=0.69)) was 92±9% and the “maximum antagonizing effect (% antagonism of Substance P-induced venodilation)” value (NK-1 receptor; 250 mg oral, 17 healthy participants, mean±SEM, 95% CI 78, 111) was 95±8%. The “Substance P-induced venodilation after administration (versus placebo)” value (NK-1 receptor; 250 mg oral, 17 healthy participants, p<0.001 vs placebo) was “markedly decreased”, the “time of maximum antagonizing effect (mean)” value (NK-1 receptor; 250 mg oral, 17 participants, mean±SEM, 95% CI 0.96, 1.98) was 1.47 ± 0.24 h and the “mean AUCe (area under the effect-time curve)” value (NK-1 receptor; 250 mg oral, 17 participants, mean±SEM, 95% CI 198, 358, p<0.001 vs placebo) was 278±67 %·h. The “time of maximum antagonizing effect (median)” value (NK-1 receptor; 250 mg oral, 17 participants, median) was 1.25 h, the “persistence of antagonistic effect relative to plasma concentration” value (NK-1 receptor; 250 mg oral, up to 4.25 h after dosing, counter-clockwise hysteresis) was “antagonistic effect persisted throughout the study while plasma concentrations declined” and the serious adverse events ([2]; 250 mg oral, 19 participants in safety analysis) was “No serious adverse event occurred”. The “changes in heart rate, blood pressure, or ECG parameters” value ([2]; 250 mg oral, single dose) was “Neither Compound D nor placebo induced significant changes”, the tolerability ([2]; 250 mg oral, single dose) was “well tolerated in all participants” and the “adverse events possibly related to the study drug (number)” value ([2]; 250 mg oral, mild headache, severe headache, cloudy urine, all resolved) was 3. The heart rate ([2]; 4.5 h after administration (baseline 60±2; p=0.14)) was 63±2 beats/min, the diastolic blood pressure ([2]; 4.5 h after administration (baseline 68±3; p=0.12)) was 72±2 mmHg and the systolic blood pressure ([2]; 4.5 h after administration (baseline 124±3; p=0.10)) was 127±2 mmHg.
